Assay results: EP2767286B1, “ORAL PHARMACEUTICAL COMPOSITION FOR THE TREATMENT OF INFLAMMATORY GASTROINTESTINAL DISEASES” (Obshestvo S Ogranichennoj Otvetstvennostju "CytoNIR", priority 2011, dated 2018)
Marks after values point to notes of the source that are not given here. Ends that are not written are not given here.

Tests used:
[1] = test system: Versuchsmodell der toxischen Hepatitis; assay: Hepatoprotective activity in the experimental model of toxic hepatitis (TCM); type: in vivo, Ratten der Linie Sprague-Dawley; conditions: 100 mg/kg, blood; for APh: alkalische Phosphatase
Text: Beispiel 2 Bewertung der hepatoprotektiven Aktivität der erfindungsgemäßen pharmazeutischen Zubereitung bei Verabreichung am Versuchsmodell der toxischen Hepatitis.
Jede Versuchsgruppe zählte 10 Tiere. Die zu untersuchenden Präparate wurden den Ratten in Form von Wasserlösung intragastrisch mit einer atraumatischen Metallsonde eingeführt. Die Referenztiere bekamen Reinwasser verabreicht.
Als Vergleichspräparat wurde bei der Untersuchung der hepatoprotektiven Aktivität das Präparat Silibinin in Kapseln, Fabrikat Rosa-Phytopharm (Bulgarien) verwendet. in der gleichen Menge wie das Volumen der hepatoprotektiven Mittel behandelt. Die hepatoprotektive Aktivität wurde 7 und 14 Tage ab Anfang der Behandlung bewertet. Im Blutserum wurden die Aktivität von Aspartat-Amino-transferase (ASAT), Alanin-Aminotransferase (ALT), alkalische Phosphatase sowie der Cholesterinspiegel, Triglyzeridespiegel ermittelt. […]
Die statistische Datenverarbeitung wurde anhand der handelsüblichen Software Microsoft Excel durchgeführt. Die Unterschiede zwischen den Stichproben wurden anhand des Student t-Tests bewertet. […] Die Angaben sind in der Tabelle 3 aufgeführt. Tabelle 3. […] Tag […]

[2] = test system: chronischen Duodenalulkus durch Heliobacter pylori; conditions: peroral, in complex therapy; cited from earlier work
[3] = test system: Modell des Indometacin-Magengeschwürs; assay: Gastroprotective activity in the indometacin gastric ulcer model; type: in vivo, Ratten der Linie Sprague-Dawley
Text: Beispiel 1 Gastroprotektive Aktivität der erfindungsgemäßen pharmazeutischen Zubereitung bei Verabreichung am Modell einer Geschwürbildung.
Die experimentelle Forschung wurde an 50 männlichen Auszucht-Ratten der Linie Sprague-Dawley mit einem Körpergewicht von 180 - 200 g durchgeführt. Vor den Versuchen wurden die Tiere einer 14 Tage langen Quarantäne und Randomisierung unterzogen. Die Tiere wurden unter Vivarium-Bedingungen mit genormter Nahrungsration unterhalten.
Die Tiere wurden in folgende Gruppen aufgeteilt: • Ratten, die mit einem ulzerogenen Präparat (Indometacin) und Kochsalzlösung (2 ml/kg) behandelt wurden; diese Tiere bilden die Vergleichsgruppe (Referenzgruppe); • Ratten, die mit einem ulzerogenen Präparat intragastrisch und einem Vergleichspräparat (Sucralfate in der Dosis von 200,0 mg/kg) behandelt wurden; • Ratten, die mit einem ulzerogenen Präparat intragastrisch und mit der pharmazeutischen Zubereitung (10,0 µg/kg) behandelt wurden; • Ratten, die mit einem ulzerogenen Präparat intragastrisch und mit der pharmazeutischen Zubereitung (0,1 µg/kg) behandelt wurden. physiologischen Lösung verabreicht. Die pharmazeutische Zubereitung und das Vergleichspräparat in den oben genannten Mengen wurden im Laufe von 7 Tagen ab dem Zeitpunkt der Simulation des Indometacin-Magengeschwürs (Heilschema) intragastrisch verabreicht. Die Tiere der Referenzgruppe wurden mit Äquivolumen-Mengen des Lösemittels unter entsprechenden Regimes behandelt.
Das Körpergewicht der Tiere wurde im Zeitablauf ermittelt. 24 Stunden nach Abschluss dieser Behandlung wurden die Tiere der Euthanasie mittels prompter Dekapitation unter Blutabnahme unterzogen. Die Mägen wurden entnommen, an der Minorseite aufgeschnitten und mit kalter Kochsalzlösung gewaschen. Die Destruktionszahl wurde makroskopisch mit Hilfe von einem Binokular unter heller Vertikalbeleuchtung ermittelt. Die Destruktionen wurden je nach ihrem Flächeninhalt wie folgt differenziert: Fein (punktförmig, Größe von unter 1 mm), mittelmäßig (rund und streifenförmig, ab 1 mm) und groß (über 1- 2 mm). Das Vorhandensein von Blut an der Destruktionsunterkante wurde anhand der Peroxydase-Reaktion mit Orthodianisidin-Substrat unter Kennfärben der Schleimhaut mit Methylenblau erkannt. Dabei wurde die hämhaltige Oberfläche braun-schwarz im bläulichen Hintergrund der intakten Schleimhaut gefärbt.
Die Verteilung der Tiere in der Gruppe mit Schleimhautfehlern wurde je nach Grad der Ausprägung der makroskopischen Änderungen erfasst. Der Paul's Index (PI) wurde wie folgt berechnet: durchschnittliche Geschwürmenge x % der Tiere mit Geschwüren / 100 %. Die gastroprotektive Aktivität (GA) wurde als PI / PI Verhältnis zwischen der Referenzgruppe und einer Versuchsgruppe berechnet. Das zu untersuchende Präparat wurde als aktiv beurteilt, wenn GA 2 und mehr betrug.
Die statistische Datenverarbeitung wurde anhand der handelsüblichen Software Microsoft Excel durchgeführt. Die Relevanz der Änderungen wurde unter Anwendung des Student t-Tests berechnet.

[4] = test system: nicht durch Heliobacter pylori assoziierte Magengeschwüren; conditions: peroral, in complex therapy; cited from earlier work

Q: Which results are given for `COc1cc(C2Oc3cc([C@H]4Oc5cc(O)cc(O)c5C(=O)[C@@H]4O)ccc3OC2CO)ccc1O` (some centres unmarked) [Silibinin]?
A: APh ([1]; 7. Behandlungstag): 469±30 nMol/s x L; ALAT ([1]; 7. Behandlungstag): 1,56±0,12 mMol/Einheiten x L; ASAT ([1]; 7. Behandlungstag): 1,28±0,15 mMol/Einheiten x L; Cholesterin ([1]; 7. Behandlungstag): 3,60±0,18 mMol/ L; Triglyzeride ([1]; 7. Behandlungstag): 2,44±0,12 mMol/ L; APh ([1]; 14. Behandlungstag): 288±17 nMol/s x L; ALAT ([1]; 14. Behandlungstag): 0,99±0,16 mMol/Einheiten x L; ASAT ([1]; 14. Behandlungstag): 0,75±0,11 mMol/Einheiten x L; Cholesterin ([1]; 14. Behandlungstag): 1,99±0,12 mMol/ L; Triglyzeride ([1]; 14. Behandlungstag): 1,48±0,14 mMol/ L

Q: For “N-Acetyl- Glukosaminyl- 1 -4-N-Acetylmuramid- L-Alanyl- D-Isoglutamin [Licopid]”, which “Eradikation von Heliobacter pylori und Wiederherstellung der Magenschleimhaut” value [2] is on record?
A: hohe Effizienz hinsichtlich der Eradikation von Heliobacter pylori

Q: What does the source list for Sucralfate?
A: Anzahl der Geschwüre (X ± m) Fein ([3]; 200 mg/kg intragastric, 7 days): 8±2; Anzahl der Geschwüre (X ± m) Groß ([3]; 200 mg/kg intragastric, 7 days): 5±2; Anzahl der Geschwüre (X ± m) Mittelmäßig ([3]; 200 mg/kg intragastric, 7 days): 4±1; Tiere mit Geschwüren ([3]; 200 mg/kg intragastric, 7 days): 100%; PI ([3]; 200 mg/kg intragastric, 7 days, Paul's Index): 16,9*; GA ([3]; 200 mg/kg intragastric, 7 days, gastroprotektive Aktivität, PI reference / PI test group, active if 2 or more): 2,05; Durchschnitt (X±m) ([3]; 200 mg/kg intragastric, 7 days, mean number of ulcers): 17±4; Körpergewichtsverlauf (M±m) ([3]; 200 mg/kg intragastric, 3 Tage): 186 ± 4 g; Körpergewichtsverlauf (M±m) ([3]; 200 mg/kg intragastric, 7 Tage): 169 ± 3 g; Körpergewichtsverlauf (M±m) ([3]; 200 mg/kg intragastric, Hintergrund (baseline)): 198 ± 3 g; Hyperämie der Schleimhaut, Anteil der Tiere ([3]; Sucralfate 200 mg/kg): 40%

Q: Which “Regeneration, Vernarbungszeit, zellgebundene Immunität” value [4] does the source give for “TEKRRETVEREKE [Gepon, synthetischer Peptid-Immunmodulator]” here?
A: Beschleunigung der Regenerationsvorgänge, zur Abkürzung der Vernarbungszeit des ulzerösen Defekts und zur Verbesserung der Kenndaten der zellgebundenen Immunität
